Source: article PMC6272715, “Discovery of Novel Small Molecule Anti-HCV Agents via the CypA Inhibitory Mechanism Using O-Acylation-Directed Lead Optimization” (Molecules, 2015)
Where two headings read alike, the source gives them in different places.

Key:
HCV JFH1-2a replicon = experiment: HCV JFH1-2a subgenomic replicon assay (Renilla luciferase, Huh 7.5.1 replicon cells); type: cell-based; settings: Hepatitis C virus
HCV H77-1a replicon = experiment: HCV H77-1a subgenomic replicon assay; type: cell-based; settings: Hepatitis C virus; Table 4; read-out: Anti-HCV Activity EC50 ± SD Replicon Assay H77-1a
HCV Con1-1b replicon = experiment: HCV Con1-1b subgenomic replicon assay; type: cell-based; settings: Hepatitis C virus; Table 4; read-out: Anti-HCV Activity EC50 ± SD Replicon Assay Con1-1b
[1] = Cell proliferation (cytotoxicity) assay, WST-1; type: cell-based; settings: human, Huh 7.5.1 cells, Table 4, 48 h
Method: Cell Proliferation Assay: Huh 7.5.1 cells were seeded at a density of 2 × 10^4 cells per well in 96-well plates overnight. The cells were respectively incubated with serial diluted compounds for 48 h, and the viability of Huh7.5.1 cells was determined in 96-well tissue culture plates using cell proliferation reagent WST-1 (Roche, Basel, Switzerland). The absorbance (OD450 /reference OD630) was measured to detect the cytotoxicity of compounds, according to the manufacturer’s protocol of Cell Proliferation Reagent WST-1.

[2] = test system: JFH1-2a virus (wild type); experiment: HCV virus assay, JFH1-2a wild type, Huh 7.5.1 cells; settings: Hepatitis C virus, Huh-7.5.1, read-out: Anti-HCV Activity EC50 ± SD Virus Assay JFH1-2a
[3] = Table 4, read-out: Anti-HCV Activity EC50 ± SD Replicon Assay JFH1-2a
[4] = Table 1, mean ± SD of three independent experiments, read-out: Anti-HCV JFH1-2a Replicon Assay EC50 ± SD

| Compound | EC50 (HCV JFH1-2a replicon; [3]) [nM] | EC50 (HCV H77-1a replicon) [nM] | EC50 (HCV Con1-1b replicon) [nM] | CC50 at 48 h [1] [nM] | melting point [°C] | EC50 [2] [nM] | EC50 (HCV JFH1-2a replicon; [4]) [nM] |
| --- | --- | --- | --- | --- | --- | --- | --- |
| CCCCCC(=O)Oc1cccc(O)c1C(=O)NC(=O)NC1c2ccccc2-c2ccccc21 [Compound 24, 1-(2-Hexanoyloxy-6-hydroxybenzoyl)-3-(9H-fluoren-9-yl)-urea] | 1080 ± 50 | 1050 ± 10 | 1000 ± 10 | > 16000 | 200 to 222 | 740 ± 370 | – |
| CCC(=O)Oc1cccc(OC(=O)CC)c1C(=O)NC(=O)NC1c2ccccc2-c2ccccc21 [Compound 27, 1-[2,6-Bis-(propionyloxy)benzoyl]-3-(9H-fluoren-9-yl)-urea] | 380 ± 30 | 520 ± 270 | 380 ± 20 | > 16000 | 165 to 167 | 420 ± 80 | – |
| O=C(NC(=O)c1c(OC(=O)C2CC2)cccc1OC(=O)C1CC1)NC1c2ccccc2-c2ccccc21 [Compound 29, 1-[2,6-Bis-(cyclopropylformyloxy)benzoyl]-3-(9H-fluoren-9-yl)-urea] | 420 ± 140 | 520 ± 140 | 600 ± 190 | > 16000 | 183 to 186 | 740 ± 350 | – |
| CC(=O)Oc1cccc(OC(C)=O)c1C(=O)NC(=O)NC1c2ccccc2-c2ccccc21 [Compound 15, 1-[2,6-Bis-(acetoxy)benzoyl]-3-(9H-fluoren-9-yl)-urea] | 460 ± 50 | 800 ± 130 | 360 ± 40 | > 16000 | – | 740 ± 360 | 460 ± 50 |
| CC(C)(C)C(=O)Oc1cccc(O)c1C(=O)NC(=O)NC1c2ccccc2-c2ccccc21 [Compound 23, 1-(2-Hydroxy-6-trimethylacetoxyloxybenzoyl)-3-(9H-fluoren-9-yl)-urea] | 480 ± 20 | 670 ± 50 | 830 ± 280 | > 16000 | 187 to 189 | 530 ± 50 | – |
| O=C(NC(=O)c1c(O)cccc1O)Nc1cccc2ccccc12 [Compound 2] | – | – | – | – | – | – | > 10000 |
| N#Cc1ccccc1C(=O)NC(=O)NC1c2ccccc2-c2ccccc21 [Compound 7] | – | – | – | – | – | – | > 50000 |
| COc1cccc(Cl)c1C(=O)NC(=O)NC1c2ccccc2-c2ccccc21 [Compound 13] | – | – | – | – | – | – | > 50000 |
| CCCCCC(=O)Oc1cccc(OC(=O)CCCCC)c1C(=O)NC(=O)NC1c2ccccc2-c2ccccc21 [Compound 32, 1-[2,6-Bis-(hexanoyloxy)benzoyl]-3-(9H-fluoren-9-yl)-urea] | 380 ± 50 | 630 ± 290 | 730 ± 340 | > 16000 | 162 to 165 | 740 ± 310 | – |
| O=C(NC(=O)c1c(O)cccc1OCCO)NC1c2ccccc2-c2ccccc21 [Compound 16] | – | – | – | – | – | – | > 20000 |
| O=C(NC(=O)c1c(OCCO)cccc1OCCO)NC1c2ccccc2-c2ccccc21 [Compound 17] | – | – | – | – | – | – | > 20000 |
| CSc1cccc(F)c1C(=O)NC(=O)NC1c2ccccc2-c2ccccc21 [Compound 12] | – | – | – | – | – | – | > 50000 |
| O=C(NCc1ccccc1)NC(=O)c1c(O)cccc1O [Compound 3] | – | – | – | – | – | – | > 50000 |
| CCCC(=O)Oc1cccc(O)c1C(=O)NC(=O)NC1c2ccccc2-c2ccccc21 [Compound 20, 1-(2-Hydroxy-6-n-butyryloxybenzoyl)-3-(9H-fluoren-9-yl)-urea] | 700 ± 20 | 980 ± 30 | 490 ± 20 | > 16000 | 204 to 210 | 280 ± 20 | – |
| CSc1ccccc1C(=O)NC(=O)NC1c2ccccc2-c2ccccc21 [Compound 10] | – | – | – | – | – | – | > 50000 |
| O=C(NC(=O)c1c(F)cccc1F)NC1c2ccccc2-c2ccccc21 [Compound 11] | – | – | – | – | – | – | > 50000 |
| O=C(NC(=O)c1c(O)cccc1O)NC1CCCCC1 [Compound 4] | – | – | – | – | – | – | > 50000 |
| O=C(NC(=O)c1ccccc1[N+](=O)[O-])NC1c2ccccc2-c2ccccc21 [Compound 6] | – | – | – | – | – | – | > 50000 |
| O=C(NC(=O)c1ccccc1F)NC1c2ccccc2-c2ccccc21 [Compound 8] | – | – | – | – | – | – | 1650 ± 320 |
| O=C(NC(=O)c1ccccc1Cl)NC1c2ccccc2-c2ccccc21 [Compound 5] | – | – | – | – | – | – | > 50000 |
| O=C(NC(=O)c1ccccc1C(F)(F)F)NC1c2ccccc2-c2ccccc21 [Compound 9] | – | – | – | – | – | – | > 10000 |
